According to US11419806B2, “Prebiotic oral care methods using a saccharide” (Colgate-Palmolive Company, priority 2013, dated 2022):

Experiments:
Assay type in all cases: cell-based
[1] = test system: Aggregatibacter actinomycetemcomitans; experiment: Twenty-four hour optical density growth in BHI; settings: A actinomycetemcomitans
Description: (§1) The extent of growth of the tested bacteria in response to selected saccharides (myo-inositol, D-lactitol, D-turanose and N-acetyl-D-mannosamine) was investigated by setting up growth curves in a nutritionally rich medium (brain heart infusion broth (BHI), Oxoid), over 24 hours. Late exponential growth phase liquid cultures were prepared by transferring the respective bacterium from blood agar plates to BHI and overnight incubation at 37° C. in an anaerobic atmosphere for A. viscosus, V. parvula, F. nucleatum, P. gingivalis, P. intermedia, T. forsythia, A. naeslundii, and C. sputigena, and in a 5% CO2 environment for S. salivarius, S. sanguinis, S. mitis, A. actinomycetemcomitans, S. mutans, S. sobrinus and S. gordonii. Overnight cultures were transferred to BHI and adjusted to a concentration of 1×10^7 CFU/ml (colony forming units per ml) by measuring the optical density at 600 nm (OD600) (BioRad SmartSpec 3000). For each strain, 200 μl of the bacterial suspension was added to a 96-well plate containing 20 μl of the respective saccharides. Final concentrations of the saccharides were set to 5, 10, 20 and 25 μmol/ml. […] Plates were incubated as previously described.
(§2) For each combination of bacterium/saccharide, and for each of their respective controls (i.e. the particular bacterium in the nutritionally rich medium with no saccharide), the optical density was measured at 630 nm (OD630) at 0 h and 24 h (Thermo Scientific Multiskan Ascent). Additionally, the OD630 for combinations of bacterium/saccharides grown in a 5% CO2 environment were also measured every hour between 0 h and 9 h.
(§3) The experiment was carried out on three different days (thus providing 3 biological replicas) and on each day the experiment was carried out in quadruple (thus providing 4 technical replicas) for each combination of bacterium with saccharide and for each control. For each day and for each combination, the average (mean) of the values obtained (as detailed above) for the four technical replicas was calculated to provide a single value for each combination on each day. The values shown in Tables 5a,b to 6a,b, below, are the average (mean) of the three single values obtained for each combination of bacterium with saccharide.

Prevotella intermedia = experiment: Twenty-four hour optical density growth in BHI; settings: P intermedia
Description: as §1, §2, §3

S. sanguinis = experiment: Twenty-four hour optical density growth in BHI
Description: as §1, §2, §3

Streptococcus mitis = experiment: Twenty-four hour optical density growth in BHI; settings: S mitis
Description: as §1, §2, §3

Streptococcus salivarius = experiment: Twenty-four hour optical density growth in BHI; settings: S salivarius
Description: as §1, §2, §3

Streptococcus sobrinus = experiment: Twenty-four hour optical density growth in BHI; settings: S sobrinus
Description: as §1, §2, §3

Veillonella parvula = experiment: Twenty-four hour optical density growth in BHI; settings: V parvula
Description: as §1, §2, §3

[2] = test system: beneficial oral bacteria and pathogenic oral bacteria; experiment: Microarray screen, overall prebiotic assessment; settings: 24 hrs
Description: Substrates that were able to increase the metabolic activity of at least one of the above beneficial bacteria while not or only minimally increasing the growth of the pathogenic bacteria are considered to be prebiotic substrates.
The extent of metabolic activity of the tested bacteria in the presence of the above-mentioned saccharides after 24 hours and 48 hours was investigated through a high throughput phenotype microarray system (PM) for microbial cells (Biolog Inc.). Each PM can contain up to 95 different biochemical compounds (e.g. saccharides) that may act as substrates for bacteria as well as one negative control, not containing the substrates. Microarray plates were used in which the different wells of each plate were pre-loaded (by the manufacturer, Biolog Inc.) with different saccharides to be tested. Each bacterial species was tested using a separate microarray plate. Thus, a single bacterial species was tested with a variety of saccharides on each particular plate. The microarrays are based on redox technology, using cell respiration as a universal reporter. Active cell respiration results in the reduction of a tetrazolium dye and in the formation of a strong color—for example, when using the tetrazolium dye “Biolog Redox Dye Mix D”, the color changes from transparent/colorless to purple when the dye is reduced. The observation of this color change indicates which of the substrates improve the metabolic activity and health of the cells.
Each bacterial species was collected from blood agar plates (incubated for 48 hours anaerobically at 37° C.) and transferred to an IF-0 Base inoculation fluid (Biolog Inc.), which is a nutritionally poor medium. The resulting cell suspension was adjusted to a transmittance of 42% (relative to the transmittance of the base inoculation fluid with no bacterial species present) at 492 nm using a BioRad SmartSpec 3000 Photometer (the adjustment being effected by adding either further inoculation fluid or further bacteria until the transmittance of 42% was achieved). A 1:5 dilution of this suspension was prepared by mixing 3 mL of the 42% transmittance cell suspension with 15 mL of an inoculation fluid (which inoculation fluid was formed by mixing 11.6 mL sterile water, 62.5 mL IF-0 base inoculation fluid and 0.9 mL of the tetrazolium dye “Biolog Redox Dye mix D”), resulting in a final cell density which was equal to 85% transmittance using a BioRad SmartSpec 3000 Photometer. For each of the saccharides tested, the microarray plate (obtained from the supplier (Biolog Inc.) with saccharides already present in the relevant wells in powder form) was directly inoculated with 100 μL/well of this 85% transmittance cell suspension.
All plates were incubated in an anaerobic atmosphere at 37° C. Color changes were measured spectrophotometrically at 492 nm (Thermo Scientific Multiskan Ascent) at 24 hrs and 48 hrs using the same plate at both time points. […] After 24 hrs and 48 hrs under continuous shaking in a Multiscan microplate reader, the optical density (OD) of the synthetic medium at 24 hours and 48 hours was measured (using the microplate reader) at a wavelength of 492 nm for each combination of bacterium/saccharide, and for each of their respective controls (i.e. which contained the particular bacterium but no saccharide).
The experiment was carried out three times for each combination of bacterium with saccharide, with each repeat being carried out on a different day (thus providing three biological replicas). The controls were also carried out three times, as above. The values shown are the average (mean) of the three single values obtained (as detailed above) for each combination of bacterium with saccharide, at 24 hrs and at 48 hrs.
This value was selected in order to exclude low-stimulating metabolites and avoid false positive results.

Row | Compound | extent of growth: maximal OD630 over 24 hr divided by maximal OD of control (control = 1) ([1]; 5 μmol/ml) | extent of growth: maximal OD630 over 24 hr divided by maximal OD of control (control = 1) ([1]; 10 μmol/ml) | extent of growth: maximal OD630 over 24 hr divided by maximal OD of control (control = 1) ([1]; 20 μmol/ml) | extent of growth: maximal OD630 over 24 hr divided by maximal OD of control (control = 1) ([1]; 25 μmol/ml) | extent of growth: maximal OD630 over 24 hr divided by maximal OD of control (control = 1) (Prevotella intermedia; 5 μmol/ml) | extent of growth: maximal OD630 over 24 hr divided by maximal OD of control (control = 1) (Prevotella intermedia; 10 μmol/ml) | extent of growth: maximal OD630 over 24 hr divided by maximal OD of control (control = 1) (Prevotella intermedia; 20 μmol/ml) | extent of growth: maximal OD630 over 24 hr divided by maximal OD of control (control = 1) (Prevotella intermedia; 25 μmol/ml) | extent of growth: maximal OD630 over 24 hr divided by maximal OD of control (control = 1) (S. sanguinis; 5 μmol/ml) | extent of growth: maximal OD630 over 24 hr divided by maximal OD of control (control = 1) (S. sanguinis; 10 μmol/ml) | extent of growth: maximal OD630 over 24 hr divided by maximal OD of control (control = 1) (S. sanguinis; 20 μmol/ml) | extent of growth: maximal OD630 over 24 hr divided by maximal OD of control (control = 1) (S. sanguinis; 25 μmol/ml) | extent of growth: maximal OD630 over 24 hr divided by maximal OD of control (control = 1) (Streptococcus mitis; 5 μmol/ml) | extent of growth: maximal OD630 over 24 hr divided by maximal OD of control (control = 1) (Streptococcus mitis; 10 μmol/ml) | extent of growth: maximal OD630 over 24 hr divided by maximal OD of control (control = 1) (Streptococcus mitis; 20 μmol/ml) | extent of growth: maximal OD630 over 24 hr divided by maximal OD of control (control = 1) (Streptococcus mitis; 25 μmol/ml) | extent of growth: maximal OD630 over 24 hr divided by maximal OD of control (control = 1) (Streptococcus salivarius; 5 μmol/ml) | extent of growth: maximal OD630 over 24 hr divided by maximal OD of control (control = 1) (Streptococcus salivarius; 10 μmol/ml) | extent of growth: maximal OD630 over 24 hr divided by maximal OD of control (control = 1) (Streptococcus salivarius; 20 μmol/ml) | extent of growth: maximal OD630 over 24 hr divided by maximal OD of control (control = 1) (Streptococcus salivarius; 25 μmol/ml) | further results
1 | CC(=O)N[C@H](C=O)[C@@H](O)[C@H](O)[C@H](O)CO [N-acetyl-D-mannosamine, 2-acetamido-2-deoxy-D-mannose] | 1.0637 | 0.9102 | 0.9405 | 0.8614 | 0.9530 | 1.0261 | 1.0229 | 1.0494 | 0.8350 | 0.8644 | 0.8219 | 0.8122 | 1.3409 | 1.3866 | 1.7155 | 1.7409 | 0.8639 | 0.8849 | 0.8460 | 0.9251 | extent of growth: maximal OD630 over 24 hr divided by maximal OD of control (control = 1) (Streptococcus sobrinus; 5 μmol/ml): 0.9307; extent of growth: maximal OD630 over 24 hr divided by maximal OD of control (control = 1) (Streptococcus sobrinus; 10 μmol/ml): 0.7794; extent of growth: maximal OD630 over 24 hr divided by maximal OD of control (control = 1) (Streptococcus sobrinus; 20 μmol/ml): 0.7737; extent of growth: maximal OD630 over 24 hr divided by maximal OD of control (control = 1) (Streptococcus sobrinus; 25 μmol/ml): 0.7857; extent of growth: maximal OD630 over 24 hr divided by maximal OD of control (control = 1) (Veillonella parvula; 5 μmol/ml): 1.0227; extent of growth: maximal OD630 over 24 hr divided by maximal OD of control (control = 1) (Veillonella parvula; 10 μmol/ml): 1.0174; extent of growth: maximal OD630 over 24 hr divided by maximal OD of control (control = 1) (Veillonella parvula; 20 μmol/ml): 1.0466; extent of growth: maximal OD630 over 24 hr divided by maximal OD of control (control = 1) (Veillonella parvula; 25 μmol/ml): 1.0213; prebiotic effects (metabolic activity, threshold value 2) [2]: exhibited prebiotic effects; speed of metabolism by beneficial versus pathogenic bacteria (value of 2 reached at 24 hrs) [2]: metabolized faster by the beneficial bacteria than by the pathogenic bacteria
2 | OC[C@H]1O[C@@](O)(CO)[C@@H](O[C@H]2O[C@H](CO)[C@@H](O)[C@H](O)[C@H]2O)[C@@H]1O [D-Turanose, α-D-glucopyranosyl-(1→3)-α-D-fructofuranose] | 0.7962 | 0.8318 | 0.8672 | 0.8368 | 1.1488 | 1.1312 | 1.0407 | 0.9664 | 0.8399 | 0.8356 | 0.8262 | 0.7991 | 1.4244 | 1.4274 | 1.3589 | 1.2710 | 0.9483 | 0.9662 | 0.9401 | 0.9445 | extent of growth: maximal OD630 over 24 hr divided by maximal OD of control (control = 1) (Streptococcus sobrinus; 5 μmol/ml): 1.1731; extent of growth: maximal OD630 over 24 hr divided by maximal OD of control (control = 1) (Streptococcus sobrinus; 10 μmol/ml): 1.1323; extent of growth: maximal OD630 over 24 hr divided by maximal OD of control (control = 1) (Streptococcus sobrinus; 20 μmol/ml): 1.0466; extent of growth: maximal OD630 over 24 hr divided by maximal OD of control (control = 1) (Streptococcus sobrinus; 25 μmol/ml): 1.0760; extent of growth: maximal OD630 over 24 hr divided by maximal OD of control (control = 1) (Veillonella parvula; 5 μmol/ml): 1.0000; extent of growth: maximal OD630 over 24 hr divided by maximal OD of control (control = 1) (Veillonella parvula; 10 μmol/ml): 0.9980; extent of growth: maximal OD630 over 24 hr divided by maximal OD of control (control = 1) (Veillonella parvula; 20 μmol/ml): 0.9904; extent of growth: maximal OD630 over 24 hr divided by maximal OD of control (control = 1) (Veillonella parvula; 25 μmol/ml): 1.0049; prebiotic effects (metabolic activity, threshold value 2) [2]: exhibited prebiotic effects; speed of metabolism by beneficial versus pathogenic bacteria (value of 2 reached at 24 hrs) [2]: metabolized faster by the beneficial bacteria than by the pathogenic bacteria
